Experimental data from patent US12486272B2 (NIHON NOHYAKU CO., LTD., priority 2019, dated 2025).

What was measured:
[1] = tested on: Rhipicephalus sanguineus; assay: Assay for transdermal parasiticidal activity against nymphs of Rhipicephalus sanguineus; assay type: in vivo; details: 48 h, read-out: mortality rate
Text: Assay for Transdermal Parasiticidal Activity Against Nymphs of Rhipicephalus sanguineus
DMSO diluted solutions of various compounds of the present invention were individually diluted to the final concentration of 100 ppm with an acetone/triton mixture and applied to the inside of vented sample bottles. After overnight drying, ten nymphs of R. sanguineus were introduced into each bottle, and the mortality rate was examined two days later. Aberrant adults were regarded as the dead.

[2] = tested on: Haemonchus contortus; assay: Larval motility assay on Haemonchus contortus; details: 96 h, L1 stage larvae, 4 days, relative to DMSO only, read-out: percent motility inhibition
Method: Larval Motility Assay on Haemonchus contortus DMSO diluted solutions of various compounds of the present invention were added at the final concentration of 50 ppm to the wells of a 96-well plate containing a predetermined conditioned medium. Twenty L1 stage larvae of H. contortus were introduced into each well of the 96-well plate. The plate was allowed to stand for 4 days, and then larval motility was examined. The percent motility inhibition in the wells of each treatment was calculated relative to the wells of treatment with DMSO only.

[3] = tested on: Dirofilaria immitis; assay: Larval motility assay on Dirofilaria immitis; details: 72 h, L1 stage larvae, 3 days, relative to DMSO only, read-out: percent motility inhibition
Method: Larval Motility Assay on Dirofilaria immitis
Five hundred L1 stage larvae of D. immitis were diluted in a predetermined conditioned medium and introduced into each well of a 96-well plate. DMSO diluted solutions of various compounds of the present invention were added at the final concentration of 50 ppm to the wells of the 96-well plate. The plate was allowed to stand for 3 days, and then larval motility was examined. The percent motility inhibition in the wells of each treatment was calculated relative to the wells of treatment with DMSO only.

[4] = tested on: Ctenocephalides felis; assay: whole plant or invertebrate; assay type: in vivo; details: 50 ppm in bovine blood, oral via feeder, adults, following day, read-out: mortality rate

Compound	mortality at 100 ppm [1] [%]	inhibition at 50 ppm [2] [%]	inhibition at 50 ppm [3] [%]	mortality at 50 ppm [4] [%]
CCS(=O)(=O)c1cc(/C(=N/OCCSC)OC)cnc1-c1nc2cc(C(F)(F)C(F)(F)F)nnc2n1C [Compound 1-1, methyl 5-ethylsulfonyl-N-(2-methylthioethoxy)-6-(6-pentafluoroethyl-3-methyl-3H-imidazo[4,5-c]pyridazin-2-yl)nicotinimidate]	≥ 50	≥ 50	≥ 50	≥ 50
CCS(=O)(=O)c1cc(/C(=N/OCCSC)SC)cnc1-c1nc2cc(C(F)(F)C(F)(F)F)nnc2n1C [Compound 1-19, Methyl 5-ethylsulfonyl-N-(2-methylthioethoxy)-6-(6-pentafluoroethyl-3-methyl-3H-imidazo[4,5-c]pyridazin-2-yl)nicotinyl thioimidate]	≥ 50	≥ 50	≥ 50	–
CCS(=O)(=O)c1cc(/C(=N/OCCSC)n2cncn2)cnc1-c1nc2cc(C(F)(F)C(F)(F)F)nnc2n1C [Compound 1-22]	–	≥ 50	≥ 50	≥ 50
CCS(=O)(=O)c1cc(/C(=N/OCCS(C)(=O)=O)OC)cnc1-c1nc2cc(C(F)(F)C(F)(F)F)nnc2n1C [Compound 1-3, Methyl 5-ethylsulfonyl-N-(2-methylsulfonylethoxy)-6-(6-pentafluoroethyl-3-methyl-3H-imidazo[4,5-c]pyridazin-2-yl)nicotinimidate]	–	≥ 50	≥ 50	≥ 50
CCS(=O)(=O)c1cc(/C(Br)=N/OCCSC)cnc1-c1nc2cc(C(F)(F)C(F)(F)F)nnc2n1C [Compound 1-16]	–	–	≥ 50	–
